Test results reported in patent US8431596B2 (Cancer Research Technology Limited, priority 2007, dated 2013).
pIC50: −log10 of the molar value. “And” between values parts separate entries of the source, which are not always exact repeats. Identical values can stand only once.

Biological target: T1, AXL (human catalytic domain) (Homo sapiens, UniProt P30530)
T1 construct: purchased Upstate Ltd. 14-512
T1 sequence (P30530 473-894): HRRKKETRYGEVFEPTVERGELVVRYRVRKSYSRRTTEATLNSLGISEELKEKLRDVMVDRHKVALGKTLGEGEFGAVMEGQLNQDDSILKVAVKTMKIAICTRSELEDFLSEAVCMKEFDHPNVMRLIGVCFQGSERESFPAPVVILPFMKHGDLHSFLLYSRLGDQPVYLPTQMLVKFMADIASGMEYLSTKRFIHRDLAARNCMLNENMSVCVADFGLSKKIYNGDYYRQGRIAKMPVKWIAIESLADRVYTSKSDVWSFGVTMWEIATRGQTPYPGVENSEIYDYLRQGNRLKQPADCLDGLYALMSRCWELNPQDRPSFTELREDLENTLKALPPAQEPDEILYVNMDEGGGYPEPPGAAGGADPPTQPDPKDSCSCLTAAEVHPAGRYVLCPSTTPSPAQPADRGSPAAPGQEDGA
Test: AXL (human catalytic domain) Enzyme Activity Assay (IMAP fluorescence polarisation)
Assay type: biochemical
Method: Biological Methods AXL (human catalytic domain) Enzyme Activity Assay Reagents
Kinase Assay Reaction Buffer: This consisted of 20 mM HEPES pH 7.0, 10 mM MgCl2, 1 mM DTT, […], 0.01% Triton X100 (v/v), and 0.01% BSA (w/v). All buffer components were purchased from Sigma-Aldrich at reagent grade or higher.
Kinase: Recombinant AXL isoform 1 (aa473-894 corresponding to Genbank Accession Number NP 068713) at 2 mg/mL (20.8 μM) was purchased from Upstate Ltd. (Product code 14-512, lot #28164U). The enzyme was stored at −80° C. and a working stock was prepared to a concentration of 30 nM by diluting 20.8 μM stock 1:693 in cold (4° C.) 1× Reaction Buffer. Final enzyme concentration in the assay was 15 nM.
Substrate: Fluorescein labelled CSK-tide 5FAM-[…]-NH2 was obtained from Molecular Devices (Product code R7270) and used at a working concentration of 200 nM by diluting the 100 μM stock 1:500 in 1× Reaction Buffer in a mix with the enzyme. A negative control (lacking enzyme) was prepared at the same concentrations. Final substrate concentration in the assay was 100 nM.
ATP: Supplied by Sigma (product code A-7699). A 100 mM ATP stock was prepared in […] and used at a working concentration of 375 μM by diluting the 100 mM stock 1:266.6 in Reaction Buffer. Final ATP concentration in the assay was 150 μM; this concentration represents the KM.ATP for this enzyme calculated in this assay.
IMAP Reagents: IMAP screening express kit was obtained from Molecular Devices (product code R8127). The binding reagent was gently re-suspended before diluting by 1:1000 in buffer (Binding Buffer is supplied as a 5× stock and so was diluted with water prior to use—this assay used 40% buffer A and 60% buffer B) and then vortexed before addition to wells. The binding reagent was used at a final dilution of 1:1333.
1 μL samples of test compounds in 10% DMSO/water were added to “test” wells by dry-spotting using a Matrix Platemate Plus. 5 μL Kinase/Substrate in Reaction Buffer were added to columns 1-22 of a Corning black low binding 384 well #6754 (90 μL volume) microplate to give 12 nM and 100 nM reaction concentration respectively. 5 μL substrate in Reaction Buffer was added to columns 23 and 24 to give 100 nM reaction concentration. 4 μL ATP in Reaction Buffer was added to all wells to give 150 μM reaction concentration. The reaction mixture was then incubated at room temperature for 60 minutes. The incubation period was followed by the addition of 20 μL IMAP Binding Reagent in Binding Buffer to all wells. The IMAP reaction detection was further incubated at room temperature overnight. The FP on a Tecan Ultra Plate reader was recorded as a single read at Ex485 Em535.
Percentage inhibition was calculated based on activity of the test sample minus the average values in the blank wells relative to the average values measured in control wells minus the average values in the blank wells.
IC50 values were calculated from 10 point dose sigmoid ‘dose-response’ curves using XIfit software (IDBS Inc, USA). Data were fitted to a 4 parameter logistic model/sigmoidal dose response defined by the following equation:
[formula] where: • A=fit minimum (locked to 0); • B=fit maximum (locked to 100); • C=fit midpoint (pre-fit to 1); and • D=slope at linear portion of curve, hillslope (pre-fit to 0.1).
The value for C represents the IC50 of the test compound.

[1] = first data set, recombinant AXL isoform 1 aa473-894, 150 μM ATP
[2] = further data set (WW-001 through WW-169, XX-001 through XX-469, YY-001 through YY-016, ZZ-001 through ZZ-003), 150 μM ATP

Row | SMILES | pIC50 [1] | pIC50 [2]
1 | O=C(Nc1nc2cccc(-c3cccc(F)c3)n2n1)C1CC1 [WW-007, Cyclopropanecarboxylic acid [5-(3-fIuoro-phenyl)-[1,2,4]triazolo[1,5-a]pyridin-2-yl]-amide] | 5.00 to 6.00 | 5.00 to 6.00
2 | Cc1cc(-c2cccc3nc(NC(=O)C4CC4)nn23)cc(C)c1O [WW-008, Cyclopropanecarboxylic acid [5-(4-hydroxy-3,5-dimethyl-phenyl)-[1,2,4]triazolo[1,5-a]pyridin-2-yl]-amide] | 5.00 to 6.00 | 5.00 to 6.00
3 | CN(C)CCNC(=O)c1ccc(-c2cccc3nc(NC(=O)C4CC4)nn23)cc1 [WW-009, 4-[2-(Cyclopropanecarbonyl-amino)-[1,2,4]triazolo[1,5-a]pyridin-5-yl]-N-(2-dimethylamino-ethyl)-benzamide] | 5.00 to 6.00 | 5.00 to 6.00
4 | COc1ccc(-c2cccc3nc(NC(=O)C4CC4)nn23)c(OC)c1 [WW-010, Cyclopropanecarboxylic acid [5-(2,4-dimethoxy-phenyl)-[1,2,4]triazolo[1,5-a]pyridin-2-yl]-amide] | 5.00 to 6.00 | 5.00 to 6.00
5 | CS(=O)(=O)Nc1cccc(-c2cccc3nc(NC(=O)C4CC4)nn23)c1 [WW-011, Cyclopropanecarboxylic acid [5-(3-methanesulfonylamino-phenyl)-[1,2,4]triazolo[1,5-a]pyridin-2-yl]-amide] | 5.00 to 6.00 | 5.00 to 6.00
6 | O=C(Nc1nc2cccc(-c3ccc(F)cc3)n2n1)C1CC1 [WW-013] | 5.00 to 6.00 | 5.00 to 6.00
7 | CS(=O)(=O)c1ccc(-c2cccc3nc(NC(=O)C4CC4)nn23)cc1 [WW-014] | 5.00 to 6.00 | 5.00 to 6.00
8 | NC(=O)c1cccc(-c2cccc3nc(NC(=O)C4CC4)nn23)c1 [WW-015] | 5.00 to 6.00 | 5.00 to 6.00
9 | COCc1ccc(-c2cccc3nc(NC(=O)C4CC4)nn23)cc1 [WW-016] | 5.00 to 6.00 | 5.00 to 6.00
10 | CS(=O)(=O)Nc1ccc(-c2cccc3nc(NC(=O)C4CC4)nn23)cc1 [WW-017] | 5.00 to 6.00 | 5.00 to 6.00
11 | NC(=O)c1ccc(-c2cccc3nc(NC(=O)C4CC4)nn23)cc1 [WW-019] | 5.00 to 6.00 | 5.00 to 6.00

Other lines, results leading:

Row | pIC50 [1] | pIC50 [2] | SMILES
12 | > 6.00 and 6.94 | 5.00 to 6.00 | COc1ccc(-c2cccc3nc(Nc4ccc(OCCNCc5ccccc5)cc4)nn23)cc1
13 | > 6.00 | 6.00 to 7.00 | O=C(Nc1nc2cccc(-c3ccccc3)n2n1)C1CC1 [WW-001, Cyclopropanecarboxylic acid (5-phenyl-[1,2,4]triazolo[1,5-a]pyridin-2-yl)-amide]
14 | 5.00 to 6.00 | 5.00 to 6.00 | CC(=O)Nc1cccc(-c2cccc3nc(NC(=O)C4CC4)nn23)c1 [WW-002, Cyclopropanecarboxylic acid [5-(3-acetylamino-phenyl)-[1,2,4]triazolo [1,5-a]pyridin-2-yl]-amide]
15 | 5.00 to 6.00 | 5.00 to 6.00 | CN1CCN(c2ccc(-c3cccc4nc(NC(=O)C5CC5)nn34)cc2)CC1 [WW-003, Cyclopropanecarboxylic acid {5-[4-(4-methyl-piperazin-1-yl)-phenyl]-[1,2,4]triazolo [1,5-a]pyridin-2-yl}-amide]
16 | 5.00 to 6.00 | 5.00 to 6.00 | O=C(Nc1nc2cccc(-c3cccc(Cl)c3)n2n1)C1CC1 [WW-004, Cyclopropanecarboxylic acid [5-(3-chloro-phenyl)-[1,2,4]triazolo[1,5-a]pyridin-2-yl]-amide]
17 | > 6.00 | 6.00 to 7.00 | COc1ccc(-c2cccc3nc(NC(=O)C4CC4)nn23)cc1 [WW-005, cyclopropanecarboxylic acid [5-(4-methoxy-phenyl)-[1,2,4]triazolo[1,5-a]pyridin-2-yl]-amide]
18 | 5.00 to 6.00 | 5.00 to 6.00 | COc1ccc(-c2cccc3nc(NC(=O)C4CC4)nn23)cn1 [WW-006, Cyclopropanecarboxylic acid [5-(6-methoxy-pyridin-3-yl)-[1,2,4]triazolo[1,5-a]pyridin-2-yl]-amide]
19 | > 6.00 | 6.00 to 7.00 | O=C(Nc1nc2cccc(-c3ccc4[nH]ccc4c3)n2n1)C1CC1 [WW-018]
